From EP3431468B1, “USE OF ADIPONECTIN RECEPTOR AGONISTS IN TREATING DEPRESSION, ANXIETY AND NEUROINFLAMMATION” (CENTRE NATIONAL DE LA RECHERCHE SCIENTIFIQUE, priority 2017, dated 2019)

Experiments:
[1] = system: wt mice; assay: Open-field test (OF), locomotor activity; assay type: in vivo; details: chronic ip 1mg/kg for twenty consecutive days, 10 minutes recording
Protocol: All behavioral testing were conducted during the light phase (between 09:00 and 14:00 am) in compliance with the Institutional Animal Care and Use Committee of the University of Nice-Sophia Antipolis (permission number 010344.01 from the French "Ministère de l'Enseignement Supérieur et de la Recherche" granted to Dr. Joëlle Chabry). • Forced Swimming test (FST) - Mice were placed an inescapable transparent tank (20cm diameter, 30cm deep) filled with water (23°C ± 0.5) for six minutes as previously described by Porsolt et al. (1977). The immobility duration, as an index of the resignation, was timed during the last four minutes of the test. A mouse was considered immobile when it remained floating with only slight movements to keep its head out of the water. • Open-field test (OF) - Locomotor activity was determined using open-field (OF) activity. […] Twenty-four hours later, the latency to fall, an index of the motor coordination, was recorded on accelerating rod (from 10 to 40 rpm/min). • Light & Dark test (L&D) - The L&D place preference test was used to assess the anxiety-like behavior. […] To initiate testing, mice were placed into the light side and activity was recorded for 5 minutes. […] The amount of water and 1% sucrose solution was measured twenty-four hours later. […]

[2] = molecular target: T1, AdipoR2 (Homo sapiens, UniProt Q86V24); details: Okada-Iwabu, Yamauchi et al. 2013; cited from earlier work
T1 sequence (Q86V24 1-386): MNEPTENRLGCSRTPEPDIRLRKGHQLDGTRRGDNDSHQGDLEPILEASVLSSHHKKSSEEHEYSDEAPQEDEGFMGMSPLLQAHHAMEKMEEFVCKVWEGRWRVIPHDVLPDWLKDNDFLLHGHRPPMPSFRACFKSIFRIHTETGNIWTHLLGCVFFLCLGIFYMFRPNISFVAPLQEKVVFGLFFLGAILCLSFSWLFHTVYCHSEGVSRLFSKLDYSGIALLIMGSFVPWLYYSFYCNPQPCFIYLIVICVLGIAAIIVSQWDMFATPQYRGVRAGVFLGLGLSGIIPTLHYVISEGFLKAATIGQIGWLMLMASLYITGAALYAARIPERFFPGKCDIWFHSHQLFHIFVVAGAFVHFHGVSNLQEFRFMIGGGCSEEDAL

With `O=C(COc1ccc(C(=O)c2ccccc2)cc1)NC1CCN(Cc2ccccc2)CC1` [AdipoRon, 2-(4-Benzoylphenoxy)-N-[1-(phenylmethyl)-4-piperidinyl]-acetamide] as the molecule, how does the “mean speed in the OF test” value [1] read?
The value was “did not significantly modify”.

And the “total distance traveled in the OF test” value [1]?
Its value is “did not significantly modify”.

What about the “binding to adiponectin receptor” value [2] of the same molecule?
The value was “bind”.
